Reference: ChEMBL document CHEMBL1156128, “Nitric oxide-donating carbonic anhydrase inhibitors for the treatment of open-angle glaucoma” (Bioorg Med Chem Lett, 2009)
In brackets after ≈: the same amount, converted by molar mass.

What was measured:
[1] = physchem; settings: buffer, pH 6
[2] = species: Oryctolagus cuniculus; assay: tissue or blood; settings: Aorta
Description: Vasorelaxant activity against methoxiamin-induced contraction in rabbit aortic ring

[3] = target: Carbonic anhydrase 2 (Homo sapiens, UniProt P00918); assay: Inhibition of human carbonic anhydrase 2 up to 100 uM by CO2 hydrase stopped flow assay
[4] = target: Carbonic anhydrase 4 (Homo sapiens, UniProt P22748); assay: Inhibition of human carbonic anhydrase 4 up to 100 uM by CO2 hydrase stopped flow assay
Sequence of Carbonic anhydrase 4 (P22748 whole entry): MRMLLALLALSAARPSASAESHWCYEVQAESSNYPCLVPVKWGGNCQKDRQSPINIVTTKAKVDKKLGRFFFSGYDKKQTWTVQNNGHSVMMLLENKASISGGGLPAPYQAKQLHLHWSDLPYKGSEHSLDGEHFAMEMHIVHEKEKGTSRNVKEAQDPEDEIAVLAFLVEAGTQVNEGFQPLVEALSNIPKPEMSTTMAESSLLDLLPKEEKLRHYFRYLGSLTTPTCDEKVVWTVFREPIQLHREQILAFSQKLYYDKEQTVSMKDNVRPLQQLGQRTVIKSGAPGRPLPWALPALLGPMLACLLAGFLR

[5] = target: Carbonic anhydrase 1 (Homo sapiens, UniProt P00915); assay: Inhibition of human carbonic anhydrase 1 up to 100 uM by CO2 hydrase stopped flow assay
Sequence of Carbonic anhydrase 1 (P00915 whole entry): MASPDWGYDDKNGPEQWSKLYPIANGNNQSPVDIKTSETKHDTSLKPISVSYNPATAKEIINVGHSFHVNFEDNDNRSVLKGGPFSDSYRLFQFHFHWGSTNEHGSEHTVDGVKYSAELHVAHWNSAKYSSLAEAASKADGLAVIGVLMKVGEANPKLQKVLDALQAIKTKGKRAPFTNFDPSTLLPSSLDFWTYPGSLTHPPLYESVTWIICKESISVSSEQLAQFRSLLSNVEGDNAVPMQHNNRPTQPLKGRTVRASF

SMILES | solubility [1] [mg/mL] | EC50 [2] [µM] | Ki [3] | Ki [4] | Ki [5]
CCN(C(=O)CCCCCO[N+](=O)[O-])[C@H]1C[C@H](C)S(=O)(=O)c2sc(S(N)(=O)=O)cc21 | 0.25 (≈ 0.517 mM) | 4.25 |  |  | 
CCN(C(=O)OCCCO[N+](=O)[O-])[C@H]1C[C@H](C)S(=O)(=O)c2sc(S(N)(=O)=O)cc21 | 15.1 (≈ 32 mM) | 2.05 |  |  | 
CCN(C(=O)OCC(CO[N+](=O)[O-])O[N+](=O)[O-])[C@H]1C[C@H](C)S(=O)(=O)c2sc(S(N)(=O)=O)cc21 (stereo not given in full) |  | 0.37 |  |  | 
O=[N+]([O-])O[C@@H]1CO[C@H]2[C@@H]1OC[C@@H]2O [ISOSORBIDE MONONITRATE] | < 20 | 10.8 | Not Active | Not Active | Not Active
